According to patent US20100016324A1, “PHARMACEUTICAL COMPOSITIONS FOR THE TREATMENT OF CELLULITE” (MENARINI RICERCHE S.P.A., priority 2004, published 2010):

Legend:
[1] = tested on: human adipocytes; assay: in vitro lipolysis test: glycerol release stimulated by 10 nM isoprenalin in cultured human adipocytes; type: cell-based; conditions: Adipocyte, 15 min preincubation, 4 h, read-out: % INCREASE IN LIPOLYSIS
Protocol: Determination of extracellular glycerol produced by lipolysis of adipocyte triglycerides.
The in vitro lipolysis test was conducted on human adipocytes obtained from primary cultures of their progenitors, preadipocytes (Promocell), by inducing differentiation. The actual adipocyte differentiation was established by assaying glycerol-3-phosphate dehydrogenase (an enzyme expressed in mature adipocytes, but not in preadipocytes) and the lipids accumulated at intracellular level, with Oil Red O (Sigma).
The PDE3 inhibitors were preincubated with the adipocytes at various concentrations for 15 min; 10 nM of isoprenalin, able to induce weak stimulation of lipolysis (25% of the maximum response obtained with isoprenalin 1 μM), was then added. After 4 h the culture medium was removed, and […].
Lipolytic activity was evaluated by determining the glycerol released into the extracellular medium following triglyceride hydrolysis.
Effect of Some PDE Inhibitors on Glycerol Release, Stimulated by 10 nM Isoprenalin, in Cultured Human Adipocytes

[2] = tested on: cellulite in the upper outer part of the thighs; assay: In vivo test: thigh circumference in healthy female adults with cellulite, cream vs base cream; design: species or system human; conditions: cream with 1% Milrinone, topical, twice a day for 2 months, 10 healthy female adults
Protocol: 10 healthy female adults presenting evident cellulite in the upper outer part of the thighs were examined. Each patient served as her own control for evaluation of efficacy and safety. […] Treatment with approx. 2-3 cm of cream, massaged in for 2-3 minutes until absorbed, was repeated twice a day every day for 2 months. […] The circumference of each thigh was measured periodically, two-thirds of the way between the knee and the greater trochanter, until the end of treatment. The reduction in circumference of the pharmacologically treated thigh compared with the untreated thigh was 2.9±0.7 cm, with a range of 1.3-4.7 cm.

[3] = Determination of the compound in the blood at the end of the observation period; type: in vivo, human; conditions: after topical cream with 1% Milrinone twice a day for 2 months
Protocol: 10 healthy female adults presenting evident cellulite in the upper outer part of the thighs were examined.
Each patient served as her own control for evaluation of efficacy and safety. The cream containing the active constituent (1% Milrinone) was spread on the outer part of one thigh, while the base cream (without the active constituent) was spread in the same area of the other thigh, in a randomised manner.
Treatment with approx. 2-3 cm of cream, massaged in for 2-3 minutes until absorbed, was repeated twice a day every day for 2 months.

SMILES | activation at 10 µM [1] | further results
Nc1cc(-c2ccncc2)c[nH]c1=O [Amrinone] | 20 ± 6% | 
O=C1CN2Cc3c(ccc(Cl)c3Cl)N=C2N1 [Anagrelide, anagrelide] | 114 ± 11% | 
Cn1c(=O)c2c(ncn2C)n(C)c1=O [Caffeine, caffeine] | 10 ± 5% | 
O=C1CCc2cc(OCCCCc3nnnn3C3CCCCC3)ccc2N1 [Cilostazol, cilostazol] | 31 ± 9% | 
CSc1ccc(C(=O)c2[nH]c(=O)[nH]c2C)cc1 [Enoximone, enoximone] | 65 ± 4% | 
Cc1[nH]c(=O)c(C#N)cc1-c1ccncc1 [Milrinone, milrinone] | 151 ± 16% | reduction in circumference of the pharmacologically treated thigh compared with the untreated thigh ([2]; mean ± spread): 2.9±0.7 cm; reduction in circumference of the pharmacologically treated thigh compared with the untreated thigh, range ([2]; range across patients): 1.3-4.7 cm; presence of the compound in the blood [3]: did not detect the presence of the compound
COc1ccc(-c2nc3ccc(C4=NNC(=O)CC4C)cc3[nH]2)cc1 (stereo not drawn) [Pimobendan, pimobendan] | 159 ± 22% | 
Cn1c(=O)c2[nH]cnc2n(C)c1=O [Theophylline, theophylline] | 5 ± 4% | 
COc1cc2c(cc1OC)-c1c/c(=N\c3c(C)cc(C)cc3C)n(C)c(=O)n1CC2 [Trequinsin, trequinsin] | 276 ± 59% | 
